Data published in US7892764B2, “System for seizure suppression” (priority 2006, dated 2011).

Assays:
Format in all cases: cell-based
ASIC current [1] = biological target: T1, ASIC current (Mus musculus, UniProt Q6NXK8); assay: Acid-induced (pH 6.0) ASIC current in mouse cortical neurons, patch-clamp recording; conditions: read-out: IC50 (concentration at 50% inhibition) of ASIC current amplitude; pH drop 7.4 to 6.0, holding potential −60 mV
T1 sequence (Q6NXK8 1-526): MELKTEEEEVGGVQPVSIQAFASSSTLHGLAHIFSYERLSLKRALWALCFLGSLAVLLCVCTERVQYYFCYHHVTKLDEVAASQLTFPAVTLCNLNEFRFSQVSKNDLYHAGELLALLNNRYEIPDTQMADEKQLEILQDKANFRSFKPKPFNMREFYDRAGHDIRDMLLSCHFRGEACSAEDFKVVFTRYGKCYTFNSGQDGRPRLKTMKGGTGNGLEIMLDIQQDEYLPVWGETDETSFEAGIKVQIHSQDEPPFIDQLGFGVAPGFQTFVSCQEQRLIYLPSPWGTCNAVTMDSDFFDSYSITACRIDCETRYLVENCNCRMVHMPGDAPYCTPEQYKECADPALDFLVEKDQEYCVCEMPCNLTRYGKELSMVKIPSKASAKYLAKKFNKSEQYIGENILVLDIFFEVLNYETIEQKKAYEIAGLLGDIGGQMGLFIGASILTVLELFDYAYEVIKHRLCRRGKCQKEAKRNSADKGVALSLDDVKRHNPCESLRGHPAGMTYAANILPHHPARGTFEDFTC
Text: Mouse cortical neurons in culture were monitored electrophysiologically by patch-clamp recording of current at a holding potential of −60 mV. An ASIC current was induced at this holding potential by dropping the extracellular pH from physiological pH (pH 7.4) to pH 6.0, in the presence of different concentrations of benzamil (FIG. 11) or EIPA (FIG. 12). The current traces obtained are presented in the upper part of FIGS. 11 and 12. […] Therefore, amiloride derivatives inhibit ASIC channel activity and may be used for seizure suppression in subjects prone to seizures and/or having a seizure.

ASIC current [2] = assay: Effect of antiepileptic agents on ASIC current activated by pH drop from 7.4 to 6.0 in isolated neurons
Text: Activation of ASICs may be involved in increased neuronal excitability and thus seizure generation. Inhibition of ASICs, on the other hand, is expected to be antiepileptic. To test this hypothesis further, we performed a study to examine the effect of currently available antiepileptic agents—particularly those agents for which the mechanism of action is not fully understood—on ASIC currents. We suspected that some of the current antiepileptic agents may, in fact, exert their antiepileptic effect partially through their inhibition of an ASIC current. Three commonly used antiepileptic agents were tested on an ASIC current activated by a pH drop from 7.4 to 6.0. […] Perfusion of lamotrigine (1 mM), however, inhibited the current by 43±13% (n=3, p<0.05, FIG. 15B), whereas perfusion of 1 mM felbamate reduced the amplitude of the ASIC current by nearly 60% (n=3. FIG. 15C).

mouse hippocampal slices = assay: Low Mg2+-induced epileptiform bursting activity (evoked and spontaneous) in hippocampal slices; conditions: 200 ng/mL PcTX1 venom or 20 nM synthetic PcTX1, absence of Mg2+
Experimental: Limbic seizures (Avoli et al., 2002) are modeled by removing Mg^2+ from artificial cerebral spinal fluid (aCSF) in slices of hippocampal-entorhinal cortex, which triggers interictal-like bursting activity, or spontaneous ictal-like events (Wong et al., 2001; Anderson et al., 1986). In the presence of normal Mg^2+ (1.5 mM), stimulation of Schaffer collaterals induces single population spike or EPSP in the CA1 region of the hippocampus. […] Perfusion with Mg^2+-free aCSF for about 30 min evoked synchronous burst firing with the same stimulation intensity. In about, 30% of the slices, spontaneous clustered bursts developed in the absence of electrical stimulation. Bath perfusion of amiloride or PcTX1 for 10 min reduced the amplitude and frequency of evoked bursting activity (FIGS. 5A and 5B). Amiloride (100 μM) reduced the amplitude of the first and the second population spikes (from 1.2±0.2 mV to 0.5±0.2 mV and 0.6±0.03 mV to 0.2±0.05 mV, respectively (n=9: p<0.01, FIGS. 5A and 5B), and the number of population spikes (from 4.7±0.6 to 3.3±0.8, n=9, p<0.05)). Similarly, PcTX1 (200 ng/mL) attenuated the amplitude of the population spike (from 2.1±0.3 to 1.6±0.2 mV, n=9, p<0.05) and the number of spikes (from 4.2±0.6 to 3.0±0.6, p<0.05).
Preparation of hippocampal slices and brain slice recording. Hippocampal slices were obtained from 8- to 10-week-old mice. The protocol for brain-slice recording was approved by the Institutional Animal Care and Use Committee of Legacy Research. Animals were deeply anesthetized with isoflurane and decapitated. Brains were quickly removed and placed in ice-cold solution that contained: 125 mM sucrose, 2.5 mM KCl, 26 mM NaHCO3, 1.25 mM NaHPO4, 6.0 mM […], 0.5 mM CaCl2, and 10 mM glucose, and was saturated with 95% O2 and 5% CO2 (pH 7.4). Hippocamnpal slices were cut in 400 μm thickness in transverse plane with a vibratome (Leica VT 1000S) and placed in a slice holding chamber (BSC-PC Prechamber, Warner Instrument) and incubated in normal artificial cerebral spinal fluid (aCSF) that contained: 125 mM NaCl, 2.5 mM KCl, 26 mM NaHCO3, 1.25 mM […], 1.0 mM MgSO4, 2.0 mM CaCl2, and 10 mM glucose, and was saturated with 95% O2 and 5% CO2 (pH 7.4).
Following ˜60 min of incubation at room temperature, individual slices were transferred to a submerged slice chamber with a volume of 0.5 mL (Warner Instruments, Hamden, Conn.) and perfused with oxygenated aCSF (35° C.) at a rate of 3-4 mL/min. Recording electrodes were pulled from borosilicate glass and filled with aCSF. The population spike and the field excitatory postsynaptic potentials (fEPSP) were recorded in stratum pyramidale and striatum radiatum of hippocampal CA1 region, by stimulating Schaffer Collaterals.
For low Mg^2+ induced epileptic burst activity, Mg^2+-free aCSF was perfused to the slices for ˜30 min. For stimulus-train induced bursting discharges (STIB), each stimulation train consisted of 120 pulses at 60 Hz and each pulse was 100 μsec in duration (Stasheff et al., 1985). A 10-minute interval of non-stimulation was provided between successive trains of high frequency stimulation. Stimulation electrodes were located in striatum radiatum between CA1 and CA3 region. The population spikes were recorded from striatum pyramidale of the CA3 region.
Pharmacological and electrical bursting models. To induce epileptic burst discharges, Mg^2+-free aCSF was applied. Mg^2+-free aCSF was obtained by simply omitting MgSO4 from aCSF.

ASICs = biological target: T2, ASICs (Mus musculus, UniProt Q6NXK8); assay: Acid (pH 7.0/7.1)-induced membrane depolarization and neuronal firing, current-clamp recording; conditions: pH 7.0; amiloride 100 μM or synthetic PcTX1 20 nM
T2 construct: Primary neuronal cultures were prepared from embryonic Swiss mice at 15 to 16 days of gestation; endogenous in cells
T2 sequence (Q6NXK8 1-526): T1 sequence (Q6NXK8 1-526)
Text: Unlike ischemia, only moderate pH changes (e.g., ˜0.3 pH unit) are reported in brain parenchyma during seizures (Chesler et al., 1988: Chesler et al., 1992), although pH in the synaptic cleft may be much lower (Chesler et al., 1992; Wemmie et al., 2006). […] One possibility is that voltage-clamp recording has relatively low sensitivity to resolve small current in whole-cell configuration. To provide more evidence that the decreases of pHo to the level seen in epilepsy can indeed activate the ASICs and cause neuronal excitation, we have also used current-clamp recording to study changes of membrane depolarization and neuronal firing by small changes of pHo. Due to the large input resistance of most CNS neurons (e.g., ˜500 MΩ), even a small membrane current (e.g., 10-20 pA, which is difficult to resolve in voltage-clamp recording in general) can induce significant membrane depolarization in current-clamp conditions. Mouse cortical neurons were used for current-clamp recordings 14 days after the culture.
Cortical neuronal culture. Primary neuronal cultures were prepared from embryonic Swiss mice at 15 to 16 days of gestation according to our previously described techniques (Xiong et al., 2004). In brief, cerebral cortices from 10 to 12 embryos were dissected and incubated with 0.05% trypsin-EDTA for 10 min, dissociated by trituration with a fire-polished glass pipette, and plated on poly-L-ornithine-coated culture dishes at a density of 0.5×10^6 cells per dish. Neurons were cultured with Neurobasal medium supplemented with B27 (Invitrogen). The cultures were maintained at 37° C. in a humidified 5% CO2 atmosphere incubator and were used for experiments after 12-14 days.
Patch clamp techniques. Whole-cell voltage-clamp and current-clamp recordings were performed as described in our previous studies (Xiong et al., 2004). […] Whole-cell currents were recorded using Axopatch 200B amplifiers with pCLAMP software (Axon Instruments, CA, USA). […]

CCN(c1nc(N)c(C(=O)N=C(N)N)nc1Cl)C(C)C [EIPA, 5-(N-ethyl-N-isopropyl)-amiloride]
IC50 (ASIC current [1]): ~20 µM

CCC1(C)CC(=O)NC1=O (stereo not shown) [ethosuximide]
effect on amplitude of the ASIC current (ASIC current [2]; 1 mM, bath application 5 min, pH drop from 7.4 to 6.0): did not affect

NC(=O)OCC(COC(N)=O)c1ccccc1 [felbamate]
inhibition of ASIC current amplitude (ASIC current [2]; 1 mM, pH drop from 7.4 to 6.0): ~60%

Nc1nnc(-c2cccc(Cl)c2Cl)c(N)n1 [lamotrigine]
effect on desensitization of the ASIC current (ASIC current [2]): enhances the desensitization | inhibition of ASIC current amplitude (ASIC current [2]; 1 mM, pH drop from 7.4 to 6.0): 43±13%

synthetic PcTX1: chemically synthesized PcTX1 peptide, used at 20 nM
effect on frequency of spontaneous clustered bursting activity (mouse hippocampal slices): reduced the frequency | effect on acid-induced neuronal excitation (membrane depolarization, firing rate) (ASICs): largely and significantly reduced
